Marks after values point to notes of the source that are not given here.
Legend:
[1] = Separate experiment: solubility of palmitic acid in hexanes with switchable surfactant activation; assay type: physicochemical; settings: 1 mg/mL surfactant
Excerpt: The second vial was exposed to 365-nm ultraviolet light that activated the surfactant; the solution turned magenta due to the color of the merocyanine.

[2] = Lifetimes (half-life) of the activated merocyanine surfactants in solvents; assay type: physicochemical; settings: error limits 10-20%
Method: Lifetimes of the activated zwitterionic merocyanine isomers of compounds 4a, 4b, 4c, and 4e in several solvents were determined.
The spiropyran compound 4 was added to a solvent in a 1-cm quartz cuvette and the cuvette was irradiated with ultraviolet light at 365 nm for ˜60 seconds. […] Absorption spectra were recorded from 450 to 650 nm every 5 seconds over a 350-second observation time. The concentrations of the merocyanine were adjusted so that the initial t=0 absorbance at the absorption maximum (λmax) was in the range of 1-1.4. All kinetics experiments were done in triplicate once an appropriate spiropyran/merocyanine surfactant concentration was determined. The absorbances at λmax were normalized to the highest value, and the three data sets averaged to give the normalized absorbances as a function of time. If the normalized absorbance had dropped to at least 0.5 during the 350-s monitoring time, the half-life was taken as the time at which the normalized absorbance had reached 0.5.

[3] = in acetone, after 365 nm irradiation
[4] = in cyclohexane, after 365 nm irradiation
[5] = in ethanol, longer than 350 s monitoring, by extrapolation of exponential fit
[6] = in ethyl acetate, after 365 nm irradiation
[7] = in methanol, longer than 350 s monitoring, by extrapolation of exponential fit
[8] = in octanol, longer than 350 s monitoring, by extrapolation of exponential fit
[9] = in toluene, after 365 nm irradiation

SMILES	reversibility after UV-treated solution placed in the dark ([1]; 53 mg/mL palmitic acid)	palmitic acid dissolved with activated surfactant ([1]; 53 mg/mL palmitic acid charged, 365-nm ultraviolet light) [mg/mL]	dissolution of palmitic acid with ground-state surfactant ([1]; 53 mg/mL palmitic acid charged, kept in the dark)	Merocyanine Half-life [2, 3] [s]	Merocyanine Half-life [2, 4] [s]	Merocyanine Half-life [2, 5] [s]	Merocyanine Half-life [2, 6] [s]	Merocyanine Half-life [2, 7]	Merocyanine Half-life [2, 8] [s]	Merocyanine Half-life [2, 9] [s]
CCCCCCCCCCCCCCCCCCN1c2ccccc2C(C)(C)C12C=Cc1cc([N+](=O)[O-])ccc1O2 (stereo not shown) [4e, 3′,3′-Dimethyl-6-nitro-1′-octadecylspiro[chromene-2,2′-indoline]]	precipitate began to form	53	not fully dissolved							
C[N+]1=C(/C=C/c2cc([N+](=O)[O-])ccc2[O-])C(C)(C)c2ccccc21 [5a]				103	14	1200	19	4900 s	610	16
CCCCCCCCCCCCCCCCCC[N+]1=C(/C=C/c2cc([N+](=O)[O-])ccc2[O-])C(C)(C)c2ccccc21 [5e]				114	40	1450	20	11000 s	830	49

The remaining lines, values ahead:

reversibility after UV-treated solution placed in the dark ([1]; 53 mg/mL palmitic acid)	palmitic acid dissolved with activated surfactant ([1]; 53 mg/mL palmitic acid charged, 365-nm ultraviolet light) [mg/mL]	dissolution of palmitic acid with ground-state surfactant ([1]; 53 mg/mL palmitic acid charged, kept in the dark)	Merocyanine Half-life [2, 3] [s]	Merocyanine Half-life [2, 4] [s]	Merocyanine Half-life [2, 5] [s]	Merocyanine Half-life [2, 6] [s]	Merocyanine Half-life [2, 7]	Merocyanine Half-life [2, 8] [s]	Merocyanine Half-life [2, 9] [s]	SMILES
			130	44	1300	23	23000 s	610	32	CCCC[N+]1=C(/C=C/c2cc([N+](=O)[O-])ccc2[O-])C(C)(C)c2ccccc21 [5b]
			153	40	1500	20	>10^4‡ seconds	610	38	CCCCCCCC[N+]1=C(/C=C/c2cc([N+](=O)[O-])ccc2[O-])C(C)(C)c2ccccc21 [5c]
